Key:
[1] = tested on: Tpl2; settings: read-out: Tpl2 IC50; Reported by Ni et al; cited from earlier work
[2] = Microsomal stability; settings: for Microsomal stability (%): % compound remaining in mouse liver microsomes at 30 min
[3] = target: T1, STK17B (Homo sapiens, UniProt O94768); experiment: NanoBRET target engagement in HEK293 cells, STK17B; type: cell-based
T1 sequence (O94768 1-372): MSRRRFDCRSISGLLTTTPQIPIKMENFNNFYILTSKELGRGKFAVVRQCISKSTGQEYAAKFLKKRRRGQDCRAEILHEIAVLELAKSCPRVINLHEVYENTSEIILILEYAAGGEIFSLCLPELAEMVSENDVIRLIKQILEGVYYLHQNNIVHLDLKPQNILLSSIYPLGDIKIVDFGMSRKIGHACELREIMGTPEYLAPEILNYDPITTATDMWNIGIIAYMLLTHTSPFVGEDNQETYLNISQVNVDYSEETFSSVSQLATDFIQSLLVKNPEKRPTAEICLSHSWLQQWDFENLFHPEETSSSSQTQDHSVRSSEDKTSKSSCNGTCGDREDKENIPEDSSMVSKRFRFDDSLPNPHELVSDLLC

[4] = target: T1, STK17B; settings: KinaseSeeker IC50, compared with 4
[5] = target: 403 wild type human kinases; experiment: DiscoverX KINOMEscan scanMAX panel; type: binding; settings: for kinases with >75% displacement of the immobilized ligand: scanMAX panel of 403 wild type human kinases at 1 μM
[6] = target: T1, STK17B; experiment: DiscoverX KINOMEscan binding, STK17B; settings: DiscoverX binding assay
[7] = target: T2, STK17A (Homo sapiens, UniProt Q9UEE5); experiment: Eurofins enzyme inhibition assay, STK17A; type: biochemical
T2 sequence (Q9UEE5 1-414): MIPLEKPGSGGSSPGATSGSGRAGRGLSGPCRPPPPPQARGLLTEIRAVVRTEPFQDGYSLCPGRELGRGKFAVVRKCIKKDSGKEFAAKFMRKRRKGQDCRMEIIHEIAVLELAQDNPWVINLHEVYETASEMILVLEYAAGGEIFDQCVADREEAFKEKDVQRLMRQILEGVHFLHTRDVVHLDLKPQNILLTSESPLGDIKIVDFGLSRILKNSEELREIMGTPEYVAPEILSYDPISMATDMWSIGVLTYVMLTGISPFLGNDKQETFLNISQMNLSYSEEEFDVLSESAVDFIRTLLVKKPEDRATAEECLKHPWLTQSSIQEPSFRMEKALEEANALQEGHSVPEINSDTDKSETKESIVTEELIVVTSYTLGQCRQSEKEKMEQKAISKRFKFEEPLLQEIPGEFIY

[8] = target: T1, STK17B
[9] = target: T1, STK17B; experiment: biochemical
[10] = tested on: DAPK family; settings: read-out: IC50 on the DAPK family; cited from earlier work

CSc1ccc(-c2cc3ncnc(SCC(=O)O)c3s2)cc1 [Compound 4, 2-((6-(4-(Methylthio)phenyl)thieno[3,2-d]pyrimidin-4-yl)thio)acetic acid]
IC50 [1]: 3400 nM | compound consumed in mice liver microsomes ([2]; After 30 minutes): 100%

O=C(O)COc1ncnc2cc(-c3ccc4[nH]ncc4c3)sc12 [Compound 6, reference compound]
IC50 [1]: 1000 nM

CSc1cccc(-c2cc3ncnc(SCC(=O)O)c3s2)c1 [Compound 11b, 2-((6-(3-(Methylthio)phenyl)thieno[3,2-d]pyrimidin-4-yl)thio)acetic acid]
fold less potent than 4 in the STK17B cell assay ([3]; NanoBRET IC50, compared with 4): about 2.5 fold | fold less potent than 4 in the STK17B binding assay [4]: about 2.5 fold

O=C(O)CSc1ncnc2cc(-c3ccc(C4CC4)cc3)sc12 [Compound 11h, 2-((6-(4-Cyclopropylphenyl)thieno[3,2-d]pyrimidin-4-yl)thio)acetic acid]
Microsomal stability (%) [2]: > 50%

O=C(O)CSc1ncnc2cc(-c3cccc(N4CCOCC4)c3)sc12 [Compound 11o, 2-((6-(3-Morpholinophenyl)thieno[3,2-d]pyrimidin-4-yl)thio)acetic acid]
Microsomal stability (%) [2]: > 50%

O=C(O)CSc1ncnc2cc(-c3ccc(N4CCOCC4)cc3)sc12 [Compound 11p, 2-((6-(4-Morpholinophenyl)thieno[3,2-d]pyrimidin-4-yl)thio)acetic acid]
Microsomal stability (%) [2]: > 50%

O=C(O)CSc1ncnc2cc(-c3cc4ccccc4s3)sc12 [Compound 11s, 2-((6-(Benzo[b]thiophen-2-yl)thieno[3,2-d]pyrimidin-4-yl)thio)acetic acid]
kinases with >75% displacement of the immobilized ligand [5]: Eight | selectivity over CAMKK1 and CAMKK2 [6]: < 10 fold | selectivity for STK17B over CAMKK2 in cells ([3]; NanoBRET target engagement assays): > 10 fold | IC50 [7]: 5000 to 9000 nM | selectivity for STK17B over STK17A ([8]; enzyme assays): > 100 fold | selectivity for STK17B over all of the other kinases tested ([8]; enzyme assays): > 100 fold | IC50 [9]: 43 ± 3.5 nM | Microsomal stability (%) [2]: > 50%

COc1ccc(-c2cc3ncnc(SCC(=O)O)c3s2)cc1F [Compound 11z, 2-((6-(3-Fluoro-4-methoxyphenyl)thieno[3,2-d]pyrimidin-4-yl)thio)acetic acid]
drop in cell potency ([3]; NanoBRET, compared with 11y): 1.3 fold

O=C(O)CSc1ncnc2sc(-c3cc4ccccc4s3)cc12 [Compound 19g, 2-((6-(Benzo[b]thiophen-2-yl)thieno[2,3-d]pyrimidin-4-yl)thio)acetic acid]
kinases with >65% displacement of the immobilized ligand ([5]; scanMAX panel at 1 μM): 5 | kinases with >75% displacement of the immobilized ligand [5]: no kinase | fold less active as an inhibitor of STK17B than the chemical probe 11s ([8]; 19g compared to 11s (Table 9)): > 100 fold

CN1CCN(c2ccc3nc(-c4c(N)c5c(F)cccc5[nH]c4=O)[nH]c3c2)CC1 [dovitinib]
IC50 [10]: 1000 to 5000 nM
